This passage reports IC50 and EC50 results from patent US10457707B2, “Substituted urea depsipeptide analogs as activators of the CLPP endopeptidase” (priority 2015, dated 2019).

Read-outs that look alike come from different tables or passages of the source. *1 amine or outer side, *2 acyl side, *3 side chain or, on linkers, in order; H or OH if unused. Where a SMILES comes first, the peptide text is derived from it. Bridges are numbered along the chain shown (N, C = ends). [ ]: non-standard residue; d: D form. The star is where a group is joined. ξ: configuration not given here. Phe(3,5-F2) = N[CH](Cc1cc(F)cc(F)c1)C(=O)O; NH(4-OCF3-phenyl) = FC(F)(F)Oc1ccc(N*)cc1; X14 = O=C(C1CC(OP(=O)(O)O)CN1[*:1])[*:2]; Pro(4S-Me) = C[C@@H]1CN[C@H](C(=O)O)C1; Pro(4R-Me) = C[C@H]1CN[C@H](C(=O)O)C1; NH(3,4-Me2-phenyl) = Cc1ccc(N*)cc1C; aThr = C[C@H](O)[C@H](N)C(=O)O; ξPro(4ξ-Me) = CC1CNC(C(=O)O)C1; X13 = c1nc2cc(N*)ccc2[nH]1; Pip = O=C(O)[CH]1CCCCN1; CO = O=C([*:1])[*:2]

A word on the IC50: it is the midpoint of a concentration-inhibition curve. As a reminder, the EC50 is the concentration giving half of the maximal effect.

Series [1] concerns Vero (kidney epithelial cells; ATCC CCL-81). Briefly: Cytotoxicity assay (CellTiter-Glo cell viability, 72 hours). In kind it is cell-based. Particulars: Vero cells, 72 hours, growth inhibition; read-out: Cytotoxicity IC50. The procedure: (§1) Cytotoxicity was determined by determining the effect of compounds on cell viability. Vero (kidney epithelial cells; ATCC CCL-81) monolayers were trypsinized and 5000 cells/well were seeded (10-15% confluency) into white-wall, flat bottom 96 well microwell plates (Corning) using enriched Dulbecco's Modified Eagle's Medium (Hyclone:DMEM/High Glucose) containing 10% Fetal Bovine Serum (ATCC-30-2020). Plates were incubated overnight at 37° C. in the presence of 5% CO2. Drug-free media was then replaced with media containing serial dilutions of test compound or DMSO carrier. After an additional 72 hours of incubation, viability was indirectly measured using the CellTiter-Glo® Luminescent Cell Viability (Promega) assay. Assay plates were read at peak emission wavelength of 560 nm using a EnVision® Multilabel Plate Reader (Perkin Elmer) or PHERAstar FS Multilabel reader (BMG, Cary, N.C.). […] USA, www.graphpad.com]. For each experiment, compounds were tested in duplicate. IC50 values presented are the range of two biologically independent experiments.

Series [2] has as its target T1, Sa-ClpP (Staphylococcus aureus, UniProt Q2G036).
T1 construct: made in house; host or cells: E. coli BL21(DE3)
T1 sequence (Q2G036 1-195): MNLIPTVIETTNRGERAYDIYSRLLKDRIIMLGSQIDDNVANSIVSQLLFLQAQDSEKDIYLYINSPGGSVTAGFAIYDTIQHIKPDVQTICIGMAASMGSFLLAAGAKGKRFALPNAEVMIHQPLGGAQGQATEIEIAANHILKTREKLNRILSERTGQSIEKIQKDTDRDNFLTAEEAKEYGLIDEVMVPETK
Briefly: Sa-ClpP casein-BODIPY ClpP activation assay, method variant not marked in Table 5. In kind it is biochemical, S. aureus. The procedure: The compounds were assayed in a casein digestion assay in order to determine their effect on ClpP activation. Briefly, the assay was carried out using S. aureus ClpP (“Sa-ClpP”) overexpressed in E. coli BL21(DE3) and purified in a two-step process. Purity of the protein was assessed through SDS PAGE analysis. EC50 evaluations were conducted in triplicate in a 20 μl assay format using a method adapted from Maurizi et al. (Methods Enzymol. (1994) 244:314-331). Each well contained 10 μM saClpP, 25 μg/ml BODIPY FL casein (Invitrogen Corporation, San Diego, Calif.), and test compound in concentrations ranging between 0-1000 μM in assay buffer (50 mM Tris pH 8, 200 mM KCl, and 1 mM TCEP). The reaction took place at 37° C. Fluorescence (excitation 485 nm; emission 528 nm) was measured in five minute intervals over a 45 min period using a BioTek HT fluorescence microplate reader (BioTek Instruments, Inc., Winooski, Vt.). Velocity of each reaction was calculated and data was fit to a dose response curve using GraphPad Prism® software (GraphPad Software, Inc., La Jolla, Calif.). EC50 is the effective concentration of compound which causes 50% activation of S. aureus ClpP in the foregoing BODIPY FL casein assay.
Alternatively, the assay was carried out using EnzCheck Protease Assay (Molecular Probes, Catalog # E6638). The assay was performed in black 384 well, flat bottom, low volume plates (Greiner Bio-One, Monroe, N.C., catalog #784076). 10 μL of Tris*HCl buffer, pH 8.0 with 0.01% Triton X-100 was pipetted into each well using a Well-Mate (Thermo Scientific, Waltham, Mass.). 0.4 μL test compounds or controls (2% DMSO v/v) were added to each well using a Biomek FX liquid handling robot (Beckman Coulter, Indianapolis Ind.). After addition of test compounds and controls, 10 μL of master mix containing 2 μM Sa-ClpP and 2 μM substrate (Bodipy-FL labeled casein) in Tris*HCl buffer, pH 8.0 with 0.01% (v/v) Triton X-100, was pipetted into each well. All assays were performed in triplicate, under linear velocity conditions. Increase in fluorescent signal following activation of Sa-ClpP by test compounds and controls was measured over time period of 30 mins using filters with excitation at 485±15 nm and emission at 520±25 nm on a PHERAstar FS Multilabel reader (BMG, Cary, N.C.). […] Data analysis was done by measuring rate of casein degradation over time (slopes). Computed degradation rates (slopes) were normalized to positive (ADEP4) or negative (DMSO) controls. Using nonlinear regression curve fitting EC50 values and % activation were determined using the equation “log [agonist] vs. Response-variable slope (four parameters)-symmetrical” in the program Prism 6 (GraphPad Software, La Jolla, Calif. USA, www.graphpad.com).
Substituted urea depsipetide analogs were synthesized as described above. The EC50 for ClpP activation was determined in the Sa-ClpP in casein-BODIPY assay as described above. The IC50 for ADEP displacement was determined in the ADEP displacement fluorescent polarization assay as described above; and the IC50 for growth inhibition was determined in the Vero cell cytotoxicity assay as described above. The compound number corresponds to the compound numbers used in Tables 1-4 and the experimental examples described above.

Series [3] addresses T1, Sa-ClpP. The series can be described thus: ADEP displacement fluorescence polarization assay (FP probe ADEP 2591). In kind it is binding. The protocol: A fluorescence polarization (FP) assay was used to determine the activity of the disclosed compounds in displacing an ADEP analogue from ClpP. Briefly, the assay was performed in black 384 well, flat bottom, low volume plates (Greiner Bio-One, Monroe, N.C., catalog #784076). 20 μL of a pre-equilibrated (1 hr, room temperature) master mix (15 μM Sa-ClpP, 2% DMSO (v/v) and 50 nM FP probe in Tris*HCl, pH 8.0)) was pipetted into each well using a Well-Mate (Thermo Scientific, Waltham, Mass.). Sa-ClpP was prepared as described above for the ClpP activation assay. The FP probe was ADEP 2591 (structure shown above). The ADEP 2591 comprises a TAMRA fluorophore linked to a core based on modified ADEP 2378 via a short alkyl linker. Using pin transfer, approximately 0.4 μL (2% v/v DMSO) of each compound or control was added per well. After addition of compounds and controls, plates were allowed to incubate for an additional 120 minutes at room temperature. All assays were performed in triplicate. Polarization was monitored using an EnVision Multilabel reader (Perkin-Elmer, Waltham, Mass.) by exciting the FP probe at 530±25 nm, and monitoring fluorescence intensity of both parallel and perpendicular polarized light at 579±25 nm. Readout was in millipolarization units (mP).
Data collected was normalized to values obtained from positive (200 μM ADEP 2378) or negative (DMSO) controls. Curves were fit with non-linear regression using the equation “log [inhibitor] vs. Response-variable slope (four parameters)-symmetrical” in the program Prism 6 (GraphPad Software, La Jolla, Calif. USA, www.graphpad.com). The structures for ADEP 2378 and ADEP 2591 are shown above. ADEP 2378 is (E)-N—((S)-1-(((2R,6S,8aS,14aS,20S,23aS)-2,6-dimethyl-5,8,14,19,23-pentaoxooctadecahydro-1H,5H,14H,19H-pyrido[2,1-i]dipyrrolo[2,1-c:2′,1′-1][1]oxa[4,7,10,13]tetraazacyclohexadecin-20-yl)amino)-1-oxo-3-phenylpropan-2-yl)pent-2-enamide. ADEP 2591 is 5-(3-(3-((6S,9S,11aS,17S,20aS)-6,10-dimethyl-5,8,11,16,20-pentaoxo-17-((S)-2-((E)-pent-2-enamido)-3-phenylpropanamido)hexadecahydro-1H,5H,16H-dipyrrolo[2,1-c:2′,1′-1][1]oxa[4,7,10,13]tetraazacyclohexadecin-9-yl)propyl)thioureido)-2-(6-(dimethylamino)-3-(dimethyliminio)-3H-xanthen-9-yl)benzoate.
(In general: Fluorescence polarisation rises when a labelled molecule tumbles more slowly, as on binding a larger partner.)

Series [4] is described as follows: Cytotoxicity assay (CellTiter-Glo cell viability, 72 hours). It counts as cell-based. As to conditions: African green monkey; Vero cells, 72 hours, growth inhibition; read-out: Cytotoxicity IC50. The procedure:
as §1
(In ATP-based viability assays light output follows the ATP content of the culture.)

The mark [5] stands for this setting: values without ** or † mark, assay variant not stated, read-out: ClpP Activation EC50.
[6] abbreviates: displacement of FP probe ADEP 2591 from Sa-ClpP, read-out: ADEP Displacement IC50.

As for `C[C@H]1C[C@H]2C(=O)O[C@@H](C)[C@H](NC(=O)[C@H](Cc3cc(F)cc(F)c3)NC(=O)Nc3ccc(OC(F)(F)F)cc3)C(=O)N3CCC[C@H]3C(=O)N3CCCC[C@H]3C(=O)N[C@@H](C)C(=O)N2C1` [Compound 22, (S)-3-(3,5-difluorophenyl)-2-(3-(4-(trifluoromethoxy)phenyl)ureido)-N-((2R,6S,8aS,14aS,20S,21S,23aS)-2,6,21-trimethyl-5,8,14,19,23-pentaoxooctadecahydro-1H,5H,14H,19H-pyrido[2,1-i]dipyrrolo[2,1-c:2′,1′-l][1]oxa[4,7,10,13]tetraazacyclohexadecin-20-yl)propanamide] ({NH(4-OCF3-phenyl)-CO}-[Phe(3,5-F2)][aThr]P[Pip]A[Pro(4S-Me)]; ester 2-C), the IC50 in series [1] was 52.3 ± 7.7 µM.
On to `Cc1ccc(NC(=O)NC(Cc2cc(F)cc(F)c2)C(=O)NC2C(=O)N3CC(OP(=O)(O)O)CC3C(=O)N3CCCCC3C(=O)NC(C)C(=O)N3CC(C)CC3C(=O)OC2C)cc1C` [Compound 192, sodium (2R,6S,8aS,14aS,16R,20S,21S,23aS)-20-((S)-3-(3,5-difluorophenyl)-2-(3-(3,4-dimethylphenyl)ureido)propanamido)-2,6,21-trimethyl-5,8,14,19,23-pentaoxooctadecahydro-1H,5H,14H,19H-pyrido[2,1-i]dipyrrolo[2,1-c:2′,1′-l][1]oxa[4,7,10,13]tetraazacyclohexadecin-16-yl phosphate] ({NH(3,4-Me2-phenyl)-CO}-[Phe(3,5-F2)]T[X14][Pip]A[ξPro(4ξ-Me)]; ester 2-C; configuration not given here), for which, at Sa-ClpP [2], a half-maximal response (EC50) required 0.6 ± 0.02 µM. The IC50 at Sa-ClpP [3] was 7.37 ± 0.28 µM.
With `C[C@@H]1C[C@H]2C(=O)O[C@@H](C)[C@H](NC(=O)[C@H](Cc3cc(F)cc(F)c3)NC(=O)Nc3ccc4[nH]cnc4c3)C(=O)N3CCC[C@H]3C(=O)N3CCCC[C@H]3C(=O)N[C@@H](C)C(=O)N2C1` [Compound 303, (S)-2-(3-(1H-benzo[d]imidazol-6-yl)ureido)-3-(3,5-difluorophenyl)-N-((2R,6S,8aS,14aS,20S,21S,23aS)-2,6,21-trimethyl-5,8,14,19,23-pentaoxooctadecahydro-1H,5H,14H,19H-pyrido[2,1-i]dipyrrolo[2,1-c:2′,1′-l][1]oxa[4,7,10,13]tetraazacyclo-hexadecin-20-yl)propanamide] ({X13-CO}-[Phe(3,5-F2)][aThr]P[Pip]A[Pro(4R-Me)]; ester 2-C), on Sa-ClpP [2] (setting [5]), the EC50 came out at 1.43 ± 0.03 µM. The IC50 at Sa-ClpP [3] was determined as 11.1 ± 0.4 µM. Moreover, the IC50 at 72 h in series [4] is > 100 µM.
As for “sodium (2R,6S,8aS,14aS,16R,20S,21S,23aS)-20-((S)-3-(3,5-difluorophenyl)-2-(3-(p-tolyl)ureido)propanamido)-2,6,21-trimethyl-5,8,14,19,23-pentaoxooctadecahydro-1H,5H,14H,19H-pyrido[2,1-i]dipyrrolo[2,1-c:2′,1′-l][1]oxa[4,7,10,13]tetraazacyclohexadecin-16-yl phosphate [Compound 191]”, the EC50 at Sa-ClpP [2] (setting [5]) was 0.7 ± 0.03 µM. For the same molecule, the IC50 on Sa-ClpP [3] (setting [6]) came out at 8.56 ± 0.38 µM.
The corresponding values for “sodium (R)-1-((2R,6S,9S,11aS,17S,18S,20aS)-17-((S)-3-(3,5-difluorophenyl)-2-(3-(p-tolyl)ureido)propanamido)-2,6,10,18-tetramethyl-5,8,11,16,20-pentaoxohexadecahydro-1H,5H,16H-dipyrrolo[2,1-c:2′,1′-l][1]oxa[4,7,10,13]tetraazacyclohexadecin-9-yl)ethyl phosphate [Compound 193]” are 0.77 ± 0.05 µM and 7.15 ± 0.33 µM.
